In ChEMBL document CHEMBL5316285 (J Med Chem, 2023):
Activity calls are given as the source filed them. The calls are words filed in the database; no cut-off is given here.

Legend:
[1] = Toxicity in nude mouse xenografted with human A2780 cells assessed as loss in body weight at 2 uM/Kg, IV once every 3 days upto 21 days; conditions: 504 h, time 21 day
[2] = Retinal toxicity in nude mouse xenografted with human A2780 cells at 2 uM/Kg, IV once every 3 days upto 21 days by microscopic analysis; conditions: 504 h, time 21 day
[3] = target: T1, Nicotinamide phosphoribosyltransferase (Homo sapiens, UniProt P43490); assay: Inhibition of NAMPT (unknown origin) using NAM as substrate preincubated for 5 mins followed by substrate addition measured after 15 mins in presence of ATP by fluorescence based microplate reader analysis
Target sequence in this assay (P43490 whole entry): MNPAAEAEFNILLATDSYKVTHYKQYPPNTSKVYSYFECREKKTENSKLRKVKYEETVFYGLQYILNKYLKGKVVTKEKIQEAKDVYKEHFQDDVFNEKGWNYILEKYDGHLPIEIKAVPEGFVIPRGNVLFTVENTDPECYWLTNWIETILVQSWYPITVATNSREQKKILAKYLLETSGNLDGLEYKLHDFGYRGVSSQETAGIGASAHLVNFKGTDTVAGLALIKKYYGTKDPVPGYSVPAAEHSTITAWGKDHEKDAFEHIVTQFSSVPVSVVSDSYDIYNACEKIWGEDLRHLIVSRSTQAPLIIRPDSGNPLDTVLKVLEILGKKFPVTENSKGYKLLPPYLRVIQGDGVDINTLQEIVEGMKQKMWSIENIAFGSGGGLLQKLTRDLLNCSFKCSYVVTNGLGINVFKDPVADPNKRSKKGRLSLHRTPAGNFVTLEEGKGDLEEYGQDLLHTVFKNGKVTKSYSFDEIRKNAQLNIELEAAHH

[4] = target: T2, von Hippel-Lindau disease tumor suppressor/Nicotinamide phosphoribosyltransferase (Homo sapiens, UniProt P43490+P40337); assay: Protac activity at VHL/NAMPT in human A2780 cells assessed as degradation of NAMPT using NAM as substrate preincubated for 5 mins followed by substrate addition measured after 5 mins in presence of ATP by luminesence based microplate reader analysis; type: cell-based
Target sequence in this assay (P43490 whole entry): as above
Target sequence in this assay (P40337 whole entry): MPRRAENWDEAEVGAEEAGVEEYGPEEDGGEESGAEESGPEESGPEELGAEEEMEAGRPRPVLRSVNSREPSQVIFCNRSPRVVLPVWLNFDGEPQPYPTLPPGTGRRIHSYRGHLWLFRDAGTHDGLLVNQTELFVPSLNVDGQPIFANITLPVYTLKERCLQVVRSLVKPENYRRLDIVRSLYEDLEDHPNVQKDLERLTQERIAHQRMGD

A2780 [5] = assay: Antiproliferative activity against human A2780 cells incubated for 72 hrs in carbon-dioxide atmosphere measured by cell counting kit-8 method; type: functional, cell-based; conditions: A2780, 72 h
[6] = target: T2, von Hippel-Lindau disease tumor suppressor/Nicotinamide phosphoribosyltransferase; assay: Protac activity at VHL/NAMPT in human A2780 cells assessed as reduction of NAMPT protein level at 10 nM measured after 24 hrs by Western blotting analysis; type: cell-based
Target sequence in this assay (P40337 whole entry, looked up): as the sequence (P40337 whole entry) above
Target sequence in this assay (P43490 whole entry, looked up): as the sequence (P43490 whole entry) above

[7] = target: T2, von Hippel-Lindau disease tumor suppressor/Nicotinamide phosphoribosyltransferase; assay: Protac activity at VHL/NAMPT in human A2780 cells assessed as induction of NAMPT degradation measured at 0.005 to 10 microM after 24 hrs by Western blotting analysis; type: cell-based; conditions: dose 0.005-10 µM
Target sequence in this assay (P40337 whole entry, looked up): as the sequence (P40337 whole entry) above
Target sequence in this assay (P43490 whole entry, looked up): as the sequence (P43490 whole entry) above

[8] = target: T2, von Hippel-Lindau disease tumor suppressor/Nicotinamide phosphoribosyltransferase; assay: Protac activity at VHL/NAMPT in human A2780 cells assessed as reduction of NAMPT protein level at greater than 0.37 uM measured after 24 hrs by Western blotting analysis; type: cell-based
Target sequence in this assay (P40337 whole entry, looked up): as the sequence (P40337 whole entry) above
Target sequence in this assay (P43490 whole entry, looked up): as the sequence (P43490 whole entry) above

CT26 = assay: Antiproliferative activity against mouse CT26 cells; type: functional, cell-based
[9] = target: T2, von Hippel-Lindau disease tumor suppressor/Nicotinamide phosphoribosyltransferase; assay: Protac activity at VHL/NAMPT in human A2780 cells assessed as induction of NAMPT degradation measured at 10 nM; type: cell-based; conditions: time <= 24.0 hrs, TDE = time-dependent effect
Target sequence in this assay (P40337 whole entry, looked up): as the sequence (P40337 whole entry) above
Target sequence in this assay (P43490 whole entry, looked up): as the sequence (P43490 whole entry) above

[10] = target: T1, Nicotinamide phosphoribosyltransferase; assay: Binding affinity to NAMPT in human A2780 cells incubated at 10 uM measured from 63 to 75 degreeC for 7 hrs by cellular thermal shift assay; type: cell-based
Target sequence in this assay (P43490 whole entry, looked up): as the sequence (P43490 whole entry) above

[11] = target: von Hippel-Lindau disease tumor suppressor (Homo sapiens) (UniProt P40337); assay: Binding affinity to VHL in human A2780 cells incubated at 10 uM measured from 63 to 75 degreeC for 7 hrs by cellular thermal shift assay; type: cell-based
[12] = target: T1, Nicotinamide phosphoribosyltransferase; assay: Competitive binding activity at NAMPT in human A2780 cells assessed as blocking of NAMPT degradation pretreated with 200 nM of 1-(4-(piperidin-1-ylsulfonyl)phenyl)-3-(pyridin-3-ylmethyl)thiourea for 2 hrs followed by compound addition at 10 nM measured after 24 hrs by Western blotting analysis; type: cell-based
Target sequence in this assay (P43490 whole entry, looked up): as the sequence (P43490 whole entry) above

[13] = target: T1, Nicotinamide phosphoribosyltransferase; assay: Competitive binding activity at NAMPT in human A2780 cells assessed as blocking of NAMPT degradation pretreated with 100 uM of (2S,4R)-1-((S)-2-acetamido-3,3-dimethylbutanoyl)-4-hydroxy-N-((S)-1-(4-(4-methylthiazol-5-yl)phenyl)ethyl)pyrrolidine-2-carboxamide for 2 hrs followed by compound addition at 10 nM measured after 24 hrs by Western blotting analysis; type: cell-based
Target sequence in this assay (P43490 whole entry, looked up): as the sequence (P43490 whole entry) above

[14] = target: T1, Nicotinamide phosphoribosyltransferase; assay: Competitive binding activity at NAMPT in human A2780 cells assessed as blocking of NAMPT degradation pretreated with carfilzomib for 2 hrs followed by compound addition at 10 nM measured after 24 hrs by Western blotting analysis; type: cell-based
Target sequence in this assay (P43490 whole entry, looked up): as the sequence (P43490 whole entry) above

[15] = target: T1, Nicotinamide phosphoribosyltransferase; assay: Competitive binding activity at NAMPT in human A2780 cells assessed as blocking of NAMPT degradation pretreated with MLN4924 for 2 hrs followed by compound addition at 10 nM measured after 24 hrs by Western blotting analysis; type: cell-based
Target sequence in this assay (P43490 whole entry, looked up): as the sequence (P43490 whole entry) above

[16] = target: T1, Nicotinamide phosphoribosyltransferase; assay: Competitive binding activity at NAMPT in human A2780 cells assessed as blocking of NAMPT degradation pretreated with epoxomicin for 2 hrs followed by compound addition at 10 nM measured after 24 hrs by Western blotting analysis; type: cell-based
Target sequence in this assay (P43490 whole entry, looked up): as the sequence (P43490 whole entry) above

[17] = target: T1, Nicotinamide phosphoribosyltransferase; assay: Competitive binding activity at NAMPT in human A2780 cells assessed as blocking of NAMPT degradation pretreated with MG132 for 2 hrs followed by compound addition at 10 nM measured after 24 hrs by Western blotting analysis; type: cell-based
A2780 [18] = assay: Downregulation of NAD+ in human A2780 cells treated upto 1000 nM for 24 hrs by chromogen based assay; type: functional, cell-based
[19] = Half life in Sprague-Dawley rat plasma at 5 mg/kg, iv by LC-MS/MS analysis; type: ADME, organism-based
[20] = Half life in mouse plasma at 5 mg/kg, iv by LC-MS/MS analysis; type: ADME, organism-based
[21] = Cmax in Sprague-Dawley rat plasma at 5 mg/kg, iv after 0.083 to 24 hrs by LC-MS/MS analysis; type: ADME, organism-based; design: dose 5 mg/kg, time upper 24 hrs, time lower 0.083 hrs, route iv
[22] = Cmax in mouse plasma at 5 mg/kg, iv after 0.083 to 24 hrs by LC-MS/MS analysis; type: ADME, organism-based; design: time upper 24 hrs, dose 5 mg/kg, time lower 0.083 hrs, route iv
[23] = AUC in Sprague-Dawley rat plasma at 5 mg/kg, iv after 0.083 to 24 hrs by LC-MS/MS analysis; type: ADME, organism-based; design: dose 5 mg/kg, time upper 24 hrs, time lower 0.083 hrs, route iv
[24] = AUC in mouse plasma at 5 mg/kg, iv after 0.083 to 24 hrs by LC-MS/MS analysis; type: ADME, organism-based; design: time lower 0.083 hrs, dose 5 mg/kg, time upper 24 hrs, route iv
[25] = Cmax in Sprague-Dawley rat plasma at 20 mg/kg, IP after 0.083 to 24 hrs by LC-MS/MS analysis; type: ADME, organism-based; design: time lower 0.083 hrs, dose 20 mg/kg, time upper 24 hrs, route ip
[26] = Cmax in mouse plasma at 20 mg/kg, IP after 0.083 to 24 hrs by LC-MS/MS analysis; type: ADME, organism-based; design: time upper 24 hrs, time lower 0.083 hrs, dose 20 mg/kg, route ip
A2780 [27] = assay: Antitumor activity against human A2780 cells xenografted in nude mouse assessed as tumor growth inhibition at 2 uM/Kg, IV once every 3 days upto 21 days relative to control; type: functional; conditions: time 21 day, at 2 µmol/kg
[28] = Toxicity in nude mouse xenografted with human A2780 cells assessed as pathological damage in heart at 2 uM/Kg, IV once every 3 days upto 21 days by hematoxylin and eosin staining analysis; type: tissue-based; conditions: 504 h, time 21 day
[29] = Toxicity in nude mouse xenografted with human A2780 cells assessed as pathological damage in liver at 2 uM/Kg, IV once every 3 days upto 21 days by hematoxylin and eosin staining analysis; type: tissue-based; conditions: 504 h, time 21 day
[30] = Toxicity in nude mouse xenografted with human A2780 cells assessed as pathological damage in spleen at 2 uM/Kg, IV once every 3 days upto 21 days by hematoxylin and eosin staining analysis; type: tissue-based; conditions: 504 h, time 21 day
[31] = Toxicity in nude mouse xenografted with human A2780 cells assessed as pathological damage in lung at 2 uM/Kg, IV once every 3 days upto 21 days by hematoxylin and eosin staining analysis; type: tissue-based; conditions: 504 h, time 21 day
[32] = Toxicity in nude mouse xenografted with human A2780 cells assessed as pathological damage in kidney at 2 uM/Kg, IV once every 3 days upto 21 days by hematoxylin and eosin staining analysis; type: tissue-based; conditions: 504 h, time 21 day
A2780 [33] = assay: Antitumor activity against human A2780 cells xenografted in nude mouse assessed as necrotic tumor cells at 2 uM/Kg, IV once every 3 days upto 21 days relative by hematoxylin and eosin staining analysis; type: functional, cell-based; conditions: time 21.0 day
A2780 [34] = assay: Antitumor activity against human A2780 cells xenografted in nude mouse assessed as reduction in Ki67 expression in tumor tissue at 2 uM/Kg, IV once every 3 days upto 21 days relative by immuno histochemical analysis; type: functional, cell-based; conditions: time 21.0 day
A2780 [35] = assay: Antitumor activity against human A2780 cells xenografted in nude mouse assessed as reduction in NAMPT protein level in tumor tissue at 2 uM/Kg, IV after 3 days by immuno histochemical analysis; type: functional, cell-based; conditions: time 3.0 day
[36] = Half life in Sprague-Dawley rat plasma at 20 mg/kg, IP by LC-MS/MS analysis; type: ADME, organism-based
[37] = Tmax in Sprague-Dawley rat plasma at 5 mg/kg, iv by LC-MS/MS analysis; type: ADME, organism-based; conditions: time 0.083-24 hrs
[38] = Tmax in Sprague-Dawley rat plasma at 20 mg/kg, IP by LC-MS/MS analysis; type: ADME, organism-based
[39] = AUC in Sprague-Dawley rat plasma at 20 mg/kg, IP after 0.083 to 24 hrs by LC-MS/MS analysis; type: ADME, organism-based; design: dose 20 mg/kg, time 0.083-24 hrs, route ip
[40] = MRT in Sprague-Dawley rat plasma at 20 mg/kg, IP after 0.083 to 24 hrs by LC-MS/MS analysis; type: ADME, organism-based; conditions: time 0.083-24 hrs
[41] = MRT in Sprague-Dawley rat plasma at 5 mg/kg, iv after 0.083 to 24 hrs by LC-MS/MS analysis; type: ADME, organism-based; conditions: time 0.083-24 hrs

von Hippel-Lindau disease tumor suppressor (Homo sapiens), sequence (P40337 whole entry, looked up): as the sequence (P40337 whole entry) above

- IC50 [3]: 150 nM
- DC50 [4]: < 0.17 nM
- IC50 (A2780 [5]): 1.5 nM
- Activity [6]: Active
- Activity [7]: Dose-Dependent Effect
- Activity [8]: inactive
- IC50 (CT26): 670 nM
- Activity [9]: Tde
- Activity [10]: Active
- Activity [11]: Active
- Activity [12]: Active
- Activity [13]: Active
- Activity [14]: Active
- Activity [15]: Active
- Activity [16]: Active
- Activity [17]: Active
- half-life [19]: 6.53 h
- half-life [20]: 3.72 h
- Cmax [21]: 3190 ng/mL
- Cmax [22]: 1080 ng/mL
- AUC [23]: 1310 ng·h/mL
- AUC [24]: 477 ng·h/mL
- Cmax [25]: 250 ng/mL
- Cmax [26]: 417 ng/mL
- half-life [36]: 5.41 h
- Tmax [37]: 4.8 min
- Tmax [38]: 5 h
- AUC [39]: 1740 ng·h/mL
- MRT [40]: 7.51 h
- MRT [41]: 4.45 h
Structure (SMILES): Cc1ncsc1-c1ccc([C@H](C)NC(=O)[C@@H]2C[C@@H](O)CN2C(=O)[C@@H](NC(=O)CCCCCCCCN2CCN(S(=O)(=O)c3ccc(NC(=O)NCc4cccnc4)cc3)CC2)C(C)(C)C)cc1
- Activity [1]: Non-Toxic
- Activity [2]: Non-Toxic
- Activity (A2780 [18]): Active
- TGI (A2780 [27]): 88.1%
- Activity [28]: Non-Toxic
- Activity [29]: Non-Toxic
- Activity [30]: Non-Toxic
- Activity [31]: Non-Toxic
- Activity [32]: Non-Toxic
- Activity (A2780 [33]): Active
- Activity (A2780 [34]): Active
- Activity (A2780 [35]): Active
